Consider three compounds from ChEMBL document CHEMBL3822376, “Potent anticholinesterasic and neuroprotective pyranotacrines as inhibitors of beta-amyloid aggregation, oxidative stress and tau-phosphorylation for Alzheimer's disease” (Eur J Med Chem, 2016).

In general, inhibition refers to the change of the read-out against control, counted positive when it falls. In general, viability refers to a read-out of living cells in per cent, often relative to untreated cells. Usually EC50 stands for the midpoint of the concentration-response curve. Low readings indicate an effect from little substance, high ones a need for much substance. What is called IC50 is the concentration at which inhibition is half-maximal. Lower therefore signals greater potency in that assay.

Activity calls are given as the source filed them. No cut-off for these calls is given here.

Chain of Acetylcholinesterase (O42275 whole entry): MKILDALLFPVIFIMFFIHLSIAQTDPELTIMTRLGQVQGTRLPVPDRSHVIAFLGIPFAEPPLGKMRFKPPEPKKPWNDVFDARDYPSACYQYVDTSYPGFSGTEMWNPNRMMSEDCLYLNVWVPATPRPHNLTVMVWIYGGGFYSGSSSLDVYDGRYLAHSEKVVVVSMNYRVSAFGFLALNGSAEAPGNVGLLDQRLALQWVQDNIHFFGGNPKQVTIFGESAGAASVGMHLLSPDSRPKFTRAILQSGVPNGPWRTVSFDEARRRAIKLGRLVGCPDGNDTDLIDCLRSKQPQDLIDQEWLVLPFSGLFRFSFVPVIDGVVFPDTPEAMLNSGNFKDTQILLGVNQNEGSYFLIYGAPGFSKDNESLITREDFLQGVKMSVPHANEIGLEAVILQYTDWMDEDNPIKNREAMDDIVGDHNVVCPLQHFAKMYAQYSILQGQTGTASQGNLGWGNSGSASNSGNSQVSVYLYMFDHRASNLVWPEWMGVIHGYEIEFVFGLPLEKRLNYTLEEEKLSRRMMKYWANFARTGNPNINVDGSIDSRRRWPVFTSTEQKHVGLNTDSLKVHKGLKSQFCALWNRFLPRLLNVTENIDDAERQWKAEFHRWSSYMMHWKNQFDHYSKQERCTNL

The first data set has as its system SH-SY5Y. Kind of data set: Neuroprotective activity in human SH-SY5Y cells assessed as reversal of 20 nM okadaic acid-induced cell death at 1 to 10 uM after 24 hrs by XTT assay. The data set is classed as functional, cell-based.
Settings: not given
For orientation: Formazan colour is commonly taken as a measure of viable cells.
Regarding `COC(=O)C1=C(C)Oc2nc3c(c(N)c2C1c1cc2ccc(OC)cc2nc1Cl)CCCCC3` (centres undefined), the outcome was Active.
Consider `CCOC(=O)C1=C(C)Oc2nc3c(c(N)c2C1c1cc2ccccc2nc1Cl)CCCC3` (centres undefined), for which the result was Active.
With `COc1ccc2cc(C3C4=C(CC(C)(C)CC4=O)Oc4nc5c(c(N)c43)CCC5)c(Cl)nc2c1` (centres undefined), the outcome was inactive.

The test system of the next data set is SH-SY5Y. Kind of data set: Neuroprotective activity in human SH-SY5Y cells assessed as reversal of 15 nM okadaic acid-induced cell death at 1 to 10 uM after 24 hrs by XTT assay. The data set is classed as functional, cell-based.
Settings: not given
For the compound `CCOC(=O)C1=C(C)Oc2nc3c(c(N)c2C1c1cc2ccccc2nc1Cl)CCCC3` (centres undefined), the outcome was Active.

The target of another data set is Cholinesterase (Equus caballus) (UniProt P81908). The experiment in a line: Inhibition of horse serum BuChE using […] as substrate at 50 uM preincubated for 15 mins followed by substrate addition by Ellman's method relative to control.
Chain of Cholinesterase (Equus caballus) (P81908 whole entry): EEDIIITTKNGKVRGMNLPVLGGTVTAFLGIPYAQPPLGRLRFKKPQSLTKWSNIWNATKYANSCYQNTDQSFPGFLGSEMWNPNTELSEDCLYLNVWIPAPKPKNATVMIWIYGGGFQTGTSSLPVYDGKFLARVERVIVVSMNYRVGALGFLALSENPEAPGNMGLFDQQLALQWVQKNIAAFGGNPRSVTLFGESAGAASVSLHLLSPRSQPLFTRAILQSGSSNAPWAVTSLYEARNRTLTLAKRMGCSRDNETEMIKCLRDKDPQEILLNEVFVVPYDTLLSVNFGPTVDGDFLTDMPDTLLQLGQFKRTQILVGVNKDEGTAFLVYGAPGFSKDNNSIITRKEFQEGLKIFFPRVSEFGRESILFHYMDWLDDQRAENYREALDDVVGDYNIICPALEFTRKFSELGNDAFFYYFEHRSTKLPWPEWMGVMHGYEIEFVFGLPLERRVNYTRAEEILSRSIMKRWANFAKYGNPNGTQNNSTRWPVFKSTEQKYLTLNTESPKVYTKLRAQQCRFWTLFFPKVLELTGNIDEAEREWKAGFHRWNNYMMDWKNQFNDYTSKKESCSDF
Settings: not given
On the technique in general: Ellman's reagent forms a yellow product with free thiols.
As to `COC(=O)C1=C(C)Oc2nc3c(c(N)c2C1c1cc2ccc(OC)cc2nc1Cl)CCCCC3` (centres undefined), the inhibition was determined as 50%.
Same read-out and setting: then `CCOC(=O)C1=C(C)Oc2nc3c(c(N)c2C1c1cc2ccccc2nc1Cl)CCCC3` (centres undefined), with 50%.

Tested on in another data set: not listed separately
The experiment in a line: in vitro. The settings on record: human, SH-SY5Y cells.
Description: Neurotoxicity in human SH-SY5Y cells assessed as cell viability at 5 uM after 24 hrs by XTT assay relative to control
On to `COC(=O)C1=C(C)Oc2nc3c(c(N)c2C1c1cc2ccc(OC)cc2nc1Cl)CCCCC3` (centres undefined), for which the viability at 24 h, 5 µM worked out at 95.9%.
The same measure, in the same setting: then `CCOC(=O)C1=C(C)Oc2nc3c(c(N)c2C1c1cc2ccccc2nc1Cl)CCCC3` (centres undefined), with 99.7%.
Same read-out and setting: with `COc1ccc2cc(C3C4=C(CC(C)(C)CC4=O)Oc4nc5c(c(N)c43)CCC5)c(Cl)nc2c1` (centres undefined) the figure was 113%.

The next data set deals with Acetylcholinesterase (Homo sapiens) (UniProt P22303). The experiment in a line: Inhibition of AChE in human SH-SY5Y cells assessed as decrease in okadaic acid-induced tau phosphorylation at Ser-396 residue at 10 uM after 24 hrs by Western blot analysis.
Chain of Acetylcholinesterase (Homo sapiens) (P22303 whole entry): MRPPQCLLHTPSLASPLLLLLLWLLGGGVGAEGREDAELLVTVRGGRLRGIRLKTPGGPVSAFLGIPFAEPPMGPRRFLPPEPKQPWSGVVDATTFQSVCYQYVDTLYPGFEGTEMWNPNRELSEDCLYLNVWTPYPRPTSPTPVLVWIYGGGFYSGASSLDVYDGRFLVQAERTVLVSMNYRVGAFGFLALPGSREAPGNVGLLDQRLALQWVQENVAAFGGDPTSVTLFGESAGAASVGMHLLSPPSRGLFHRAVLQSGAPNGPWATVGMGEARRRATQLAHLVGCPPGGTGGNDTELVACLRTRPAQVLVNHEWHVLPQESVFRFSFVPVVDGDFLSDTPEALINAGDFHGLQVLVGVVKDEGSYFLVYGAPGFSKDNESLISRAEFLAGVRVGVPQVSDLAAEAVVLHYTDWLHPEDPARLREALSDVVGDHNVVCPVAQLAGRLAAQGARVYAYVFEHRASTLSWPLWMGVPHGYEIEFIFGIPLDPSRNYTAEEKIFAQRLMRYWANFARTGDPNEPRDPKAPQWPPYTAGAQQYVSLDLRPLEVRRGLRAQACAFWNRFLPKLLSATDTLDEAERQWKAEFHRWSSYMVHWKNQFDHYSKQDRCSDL
Settings: not given
The data set is classed as cell-based. Background: A western blot detects proteins with antibodies after separation by electrophoresis.
Regarding `CCOC(=O)C1=C(C)Oc2nc3c(c(N)c2C1c1cc2ccccc2nc1Cl)CCCC3` (centres undefined), the inhibition entry was “Active”.

Another data set shares this target. Kind of data set: Inhibition of AChE in human SH-SY5Y cells assessed as inhibition of amyloid beta (1 to 40) (unknown origin)-induced tau phosphorylation at Ser-396 residue at 5 to 10 uM after 48 hrs by Western blot analysis. In kind it is cell-based.
Settings: not given
With `CCOC(=O)C1=C(C)Oc2nc3c(c(N)c2C1c1cc2ccccc2nc1Cl)CCCC3` (centres undefined), the inhibition entry was “Active”.

Tested on in the next data set: not listed separately
The experiment in a line: in vitro. The settings on record: human, HepG2 cells.
`CCOC(=O)C1=C(C)Oc2nc3c(c(N)c2C1c1cc2ccccc2nc1Cl)CCCC3` (centres undefined): the selectivity ratio amounted to 27.
Turning to `COc1ccc2cc(C3C4=C(CC(C)(C)CC4=O)Oc4nc5c(c(N)c43)CCC5)c(Cl)nc2c1` (centres undefined), the selectivity ratio is 11.

Tested on in the next data set: not listed separately
The experiment in a line: in vitro. To be noted: human, SH-SY5Y cells. This is another data set of the same source.
Description: Neurotoxicity in human SH-SY5Y cells assessed as cell viability at 0.1 uM after 24 hrs by XTT assay relative to control
In the case of `COC(=O)C1=C(C)Oc2nc3c(c(N)c2C1c1cc2ccc(OC)cc2nc1Cl)CCCCC3` (centres undefined), the viability at 24 h, 0.1 µM is 90.8%.
For `CCOC(=O)C1=C(C)Oc2nc3c(c(N)c2C1c1cc2ccccc2nc1Cl)CCCC3` (centres undefined), the viability at 24 h, 0.1 µM worked out at 110%.
As for `COc1ccc2cc(C3C4=C(CC(C)(C)CC4=O)Oc4nc5c(c(N)c43)CCC5)c(Cl)nc2c1` (centres undefined), the viability at 24 h, 0.1 µM turned out to be 85%.

A further data set relates to HepG2.
Experiment: not given
Settings: not given
Take `CCOC(=O)C1=C(C)Oc2nc3c(c(N)c2C1c1cc2ccccc2nc1Cl)CCCC3` (centres undefined): a half-maximal response (EC50) required 4.82 mM.
`COc1ccc2cc(C3C4=C(CC(C)(C)CC4=O)Oc4nc5c(c(N)c43)CCC5)c(Cl)nc2c1` (centres undefined) had an EC50 of 1.92 mM. Compared with the last compound, the EC50 is about 2.5-fold lower.

Tested on in the next data set: not listed separately
Kind of data set: in vitro. The settings on record: human, SH-SY5Y cells. This is another data set of the same source.
Description: Neurotoxicity in human SH-SY5Y cells assessed as cell viability at 10 uM after 24 hrs by XTT assay relative to control
With `COC(=O)C1=C(C)Oc2nc3c(c(N)c2C1c1cc2ccc(OC)cc2nc1Cl)CCCCC3` (centres undefined), the viability at 24 h, 10 µM is 85.1%.
Same read-out and setting: with `CCOC(=O)C1=C(C)Oc2nc3c(c(N)c2C1c1cc2ccccc2nc1Cl)CCCC3` (centres undefined) the figure was 96.5%; with `COc1ccc2cc(C3C4=C(CC(C)(C)CC4=O)Oc4nc5c(c(N)c43)CCC5)c(Cl)nc2c1` (centres undefined), 102%.

For the next data set, the system named is SH-SY5Y. The experiment in a line: Neuroprotective activity against amyloid beta (1 to 40)-induced cell death in human SH-SY5Y cells at 10 uM after 48 hrs by phase contrast microscopic analysis. In kind it is functional, cell-based.
Settings: not given
Take `CCOC(=O)C1=C(C)Oc2nc3c(c(N)c2C1c1cc2ccccc2nc1Cl)CCCC3` (centres undefined): the outcome was Active.

Tested on in the next data set: not listed separately
Kind of data set: in vitro. To be noted: human, SH-SY5Y cells. The source holds these as a separate data set.
Description: Neurotoxicity in human SH-SY5Y cells assessed as cell viability at 1 uM after 24 hrs by XTT assay relative to control
Turning to `COC(=O)C1=C(C)Oc2nc3c(c(N)c2C1c1cc2ccc(OC)cc2nc1Cl)CCCCC3` (centres undefined), the viability at 24 h, 1 µM came out at 93.2%.
Still for that read-out and setting: then `CCOC(=O)C1=C(C)Oc2nc3c(c(N)c2C1c1cc2ccccc2nc1Cl)CCCC3` (centres undefined), with 104%; and `COc1ccc2cc(C3C4=C(CC(C)(C)CC4=O)Oc4nc5c(c(N)c43)CCC5)c(Cl)nc2c1` (centres undefined), with 91.6%.

Another data set addresses Acetylcholinesterase (Homo sapiens) (UniProt P22303). The experiment in a line: Inhibition of AChE in human SH-SY5Y cells assessed as reduction in rotenone/oligomycin-A-induced tau phosphorylation at Ser-396 residue at 10 uM after 24 hrs by Western blot analysis. In kind it is cell-based.
Settings: not given
Regarding `CCOC(=O)C1=C(C)Oc2nc3c(c(N)c2C1c1cc2ccccc2nc1Cl)CCCC3` (centres undefined), the inhibition entry is “Active”.

A further data set has the same target. Kind of data set: Inhibition of AChE in human SH-SY5Y cells assessed as inhibition of amyloid beta (1 to 40) (unknown origin)-induced amyloid beta aggregation at 5 to 10 uM measured every 24 hrs for 7 days by Thioflavin T based fluorometric assay. In kind it is cell-based.
Settings: not given
Consider `CCOC(=O)C1=C(C)Oc2nc3c(c(N)c2C1c1cc2ccccc2nc1Cl)CCCC3` (centres undefined), for which the inhibition result is “Active”.

A further data set addresses Acetylcholinesterase (Electrophorus electricus, UniProt O42275).
Experiment: not given
Settings: not given
In turn, `COC(=O)C1=C(C)Oc2nc3c(c(N)c2C1c1cc2ccc(OC)cc2nc1Cl)CCCCC3` (centres undefined) registered an IC50 of 1870 nM.
`CCOC(=O)C1=C(C)Oc2nc3c(c(N)c2C1c1cc2ccccc2nc1Cl)CCCC3` (centres undefined) had a 50% inhibitory concentration (IC50) of 480 nM.
Still for that read-out and setting: then `COc1ccc2cc(C3C4=C(CC(C)(C)CC4=O)Oc4nc5c(c(N)c43)CCC5)c(Cl)nc2c1` (centres undefined), with 580 nM.

Tested on in another data set: not listed separately
Kind of data set: in vitro. The settings on record: human, HepG2 cells. This is another data set of the same source.
Description: Hepatotoxicity in human HepG2 cells assessed as reduction in cell viability by MTT assay
`COC(=O)C1=C(C)Oc2nc3c(c(N)c2C1c1cc2ccc(OC)cc2nc1Cl)CCCCC3` (centres undefined) came in with an EC50 of 745 µM.

The next data set has as its target Acetylcholinesterase (Homo sapiens) (UniProt P22303). Kind of data set: Inhibition of AChE in human SH-SY5Y cells assessed as decrease in okadaic acid-induced tau oligomerization at 10 uM after 24 hrs by Western blot analysis.
Settings: not given
In kind it is cell-based.
As to `CCOC(=O)C1=C(C)Oc2nc3c(c(N)c2C1c1cc2ccccc2nc1Cl)CCCC3` (centres undefined), the inhibition result is “Active”.

Another data set concerns SH-SY5Y. Kind of data set: cells. To be noted: Homo sapiens, 24 h.
Description: Neuroprotective activity against rotenone/oligomycin-A-induced cell death in human SH-SY5Y cells assessed as increase in cell viability after 24 hrs by XTT assay
`COC(=O)C1=C(C)Oc2nc3c(c(N)c2C1c1cc2ccc(OC)cc2nc1Cl)CCCCC3` (centres undefined) registered a concentration for a half-maximal effect (EC50) of 5630 nM.
The same measure, in the same setting: then `CCOC(=O)C1=C(C)Oc2nc3c(c(N)c2C1c1cc2ccccc2nc1Cl)CCCC3` (centres undefined), with 1540 nM; and `COc1ccc2cc(C3C4=C(CC(C)(C)CC4=O)Oc4nc5c(c(N)c43)CCC5)c(Cl)nc2c1` (centres undefined), with 630 nM.

Tested on in a further data set: not listed separately
The experiment in a line: in vitro. The settings on record: human, SH-SY5Y cells. This is another data set of the same source.
Description: Neurotoxicity in human SH-SY5Y cells assessed as cell viability at 25 uM after 24 hrs by XTT assay relative to control
In the case of `COC(=O)C1=C(C)Oc2nc3c(c(N)c2C1c1cc2ccc(OC)cc2nc1Cl)CCCCC3` (centres undefined), the viability at 24 h, 25 µM was 98.6%.
Regarding `CCOC(=O)C1=C(C)Oc2nc3c(c(N)c2C1c1cc2ccccc2nc1Cl)CCCC3` (centres undefined), the viability at 24 h, 25 µM came out at 95.5%.
Still for that read-out and setting: with `COc1ccc2cc(C3C4=C(CC(C)(C)CC4=O)Oc4nc5c(c(N)c43)CCC5)c(Cl)nc2c1` (centres undefined) the figure was 124%.

The subject of another data set is SH-SY5Y. Kind of data set: Neuroprotective activity against amyloid beta (1 to 40)-induced cell death in human SH-SY5Y cells assessed as increase in cell viability at 10 uM after 48 hrs by XTT assay. The data set is classed as functional, cell-based.
Settings: not given
Turning to `COC(=O)C1=C(C)Oc2nc3c(c(N)c2C1c1cc2ccc(OC)cc2nc1Cl)CCCCC3` (centres undefined), the outcome was Active.
As to `CCOC(=O)C1=C(C)Oc2nc3c(c(N)c2C1c1cc2ccccc2nc1Cl)CCCC3` (centres undefined), the result was Active.

Tested on in another data set: not listed separately
The experiment in a line: in vitro. To be noted: human, SH-SY5Y cells. This is another data set of the same source.
Description: Neurotoxicity in human SH-SY5Y cells assessed as cell viability at 50 uM after 24 hrs by XTT assay relative to control
Regarding `COC(=O)C1=C(C)Oc2nc3c(c(N)c2C1c1cc2ccc(OC)cc2nc1Cl)CCCCC3` (centres undefined), the viability at 24 h, 50 µM worked out at 75.1%.
As for `CCOC(=O)C1=C(C)Oc2nc3c(c(N)c2C1c1cc2ccccc2nc1Cl)CCCC3` (centres undefined), the viability at 24 h, 50 µM is 93.6%.
For the compound `COc1ccc2cc(C3C4=C(CC(C)(C)CC4=O)Oc4nc5c(c(N)c43)CCC5)c(Cl)nc2c1` (centres undefined), the viability at 24 h, 50 µM was 94.9%.

A further data set relates to SH-SY5Y. The experiment in a line: Neuroprotective activity against 20 nM okadaic acid-induced cell death in human SH-SY5Y cells at 5 to 10 uM after 24 hrs by phase contrast microscopic analysis. In kind it is functional, cell-based.
Settings: not given
`CCOC(=O)C1=C(C)Oc2nc3c(c(N)c2C1c1cc2ccccc2nc1Cl)CCCC3` (centres undefined): the outcome was Active.
